Source: BindingDB's records for doi:10.1016/j.bmcl.2004.07.023 (North Dakota State University, 2004)

Target: T1, Interstitial collagenase (Homo sapiens, UniProt P03956)
T1 sequence (P03956 whole entry): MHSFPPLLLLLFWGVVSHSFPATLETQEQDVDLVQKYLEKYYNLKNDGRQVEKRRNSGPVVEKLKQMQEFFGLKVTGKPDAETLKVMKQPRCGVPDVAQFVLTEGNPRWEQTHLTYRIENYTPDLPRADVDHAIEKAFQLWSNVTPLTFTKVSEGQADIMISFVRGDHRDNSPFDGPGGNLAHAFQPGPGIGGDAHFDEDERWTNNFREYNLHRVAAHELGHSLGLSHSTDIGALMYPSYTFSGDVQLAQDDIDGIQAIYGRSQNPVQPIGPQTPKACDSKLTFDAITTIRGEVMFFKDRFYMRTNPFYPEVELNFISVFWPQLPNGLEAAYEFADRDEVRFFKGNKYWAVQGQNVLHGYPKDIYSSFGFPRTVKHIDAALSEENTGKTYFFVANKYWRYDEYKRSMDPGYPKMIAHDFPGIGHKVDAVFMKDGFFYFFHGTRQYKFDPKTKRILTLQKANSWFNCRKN
Experiment: Inhibitory activity against matrix metalloprotease-1; No activity upto solubility limit

Ki: > 30 µM
Compound: C=C[C@@H]1OC(c2ccc(Br)cc2)=N[C@H]1Sc1ccccc1 [(4S,5S)-2-(4-Bromo-phenyl)-4-phenylsulfanyl-5-vinyl-4,5-dihydro-oxazole]
